# Test results: patent US11938136B2, “Compositions for treating spinal muscular atrophy” (Hoffmann-La Roche Inc., priority 2015, dated 2024)
# Like-named read-outs stand apart in the source and are kept apart here.
# Assays:
# [1] = system: human SMN2 pre-mRNA; experiment: SMN2 splicing in SMA Type 1 fibroblasts (RT-PCR); assay type: cell-based; settings: Fibroblast, 24 hours
# Method: (§1) (A) SMN2 splicing in SMA Type 1 fibroblasts. (B) SMN protein in SMA Type 1 fibroblasts. (C) SMN protein in SMA Type 1 motor neurons. (D) SMN1 and SMN2 splicing in whole blood derived from HV. Fibroblasts from SMA Type 1 patients were cultured for 24 hours (A) or 48 hours (B); motor neurons from SMA Type 1 patient iPSCs (induced Pluripotent Stem Cells) were cultured for 72 hours (C) and whole blood cells from healthy volunteers (HV) for 4 hours (D) in the presence of the compound of Example 20. SMN splicing was assessed by RT-PCR, and SMN protein levels were assessed by homogenous time-resolved fluorescence (HTRF) in fibroblast lysates, and by immunostaining for SMN in motor neurons. Data represent means standard error (SEM) of 3 evaluations per data point and are expressed as fold change vs. untreated controls.
# The compound of Example 20 is an orally available small molecule SMN2 splicing modifier for the treatment of SMA. It has been found, that the compound of Example 20 effectively corrects the dysfunctional splicing of the human SMN2 pre-mRNA in cultured patient cells (SMA Type 1 fibroblasts) by shifting the balance of the alternative splicing reaction completely towards the inclusion of SMN2 exon 7 and the production of the full-length mRNA (FIG. 1A: EC50 29±8 nM for FL, 12±1 nM for Δ7 mRNA). […] EC1.5× was 4.7±0.7 nM and the maximum induction was 20-fold.
# [2] = system: SMN1 splicing; experiment: Ex vivo whole blood assay, SMN1 splicing; assay type: cell-based, human; settings: whole blood cells from healthy volunteers, 4 hours
# Method: as §1, with “controls. To further assess SMN2 splicing as a potential blood biomarker, an ex vivo assay was developed using whole blood cells from healthy volunteers in which SMN1 and SMN2 splicing was assessed after 4 hours treatment with the compound of Example 20 (at this time point, maximal splicing changes were achieved).” for “controls.”
# [3] = system: SMN protein; experiment: SMN protein in brain and quadriceps muscle of SMNΔ7 mice (HTRF); assay type: in vivo, mouse
# Method: (A) SMN protein in brains of C/C-allele mice. (B) SMN protein in brains of SMNΔ7 mice. (C) SMN protein in quadriceps muscle of C/C-allele mice. (D) SMN protein in quadriceps muscle of SMNΔ7 mice. C/C-allele mice and SMNΔ7 mice were treated with the compound of Example 20. One hour after the last dose, brains and quadriceps muscles were collected and levels of SMN protein were assessed by HTRF. Data represent means SEM of 5-6 animals per group and are expressed as fold change vs. vehicle-treated controls. *=p<0.05, **=p<0.01, ***=p<0.001 vs. untreated controls.
# In vivo, the compound of Example 20 increases SMN protein in the brain and muscle in the severe SMNΔ7 model and the milder C/C-allele model, carrying human SMN2 transgenes. Adult C/C-allele mice were treated for 10 days with vehicle or the compound of Example 20 (1, 3 or 10 mg/kg PO, daily), and 3 days old (P3) SMNΔ7 mice were treated for 7 days with vehicle or the compound of Example 20 (0.1, 0.3, 1 or 3 mg/kg IP, daily). […] In SMNΔ7 mice, the SMN protein increase was only partial in both brain and muscle, reaching approximately 43% (brain) and 55% (muscle) of protein levels in heterozygous mice.
# [4] = system: SMN protein; experiment: SMN protein in spinal motor neurons derived from SMA patient iPSCs (immunostaining); assay type: cell-based, human
# Method: as §1
# [5] = system: SMN2 splicing; experiment: Ex vivo whole blood assay, SMN2 splicing; assay type: cell-based, human; settings: whole blood cells from healthy volunteers, 4 hours
# Method: as §1, with “controls. To further assess SMN2 splicing as a potential blood biomarker, an ex vivo assay was developed using whole blood cells from healthy volunteers in which SMN1 and SMN2 splicing was assessed after 4 hours treatment with the compound of Example 20 (at this time point, maximal splicing changes were achieved).” for “controls.”
# [6] = system: splicing events and expression levels of genes; experiment: Transcriptional profiling analysis; assay type: cell-based
# Description: The specific function of STRN3, SLC25A17, and GGCT and consequences of their dysregulation have not been elucidated so far. These three genes are also consistently found to be affected at the higher dose (5-fold higher than the EC90), a dose used in order to illustrate the maximum effect of this compound. Splicing events of 11 genes, including the genes FoxM1 and MADD, were affected at the higher dose but not by the lower dose. FoxM1 and MADD have been described as being involved in cell cycle regulation and apoptosis, respectively.
structure (smiles),measurement,setting,value
"Cc1cn2nc(-c3cc(=O)n4cc(N5CCNC6(CC6)C5)ccc4n3)cc(C)c2n1 [Example 20, 7-(4,7-diazaspiro[2.5]octan-7-yl)-2-(2,8-dimethylimidazo[1,2-b]pyridazin-6-yl)pyrido[1,2-a]pyrimidin-4-one]",EC50,[1]; read-out: EC50 for FL SMN2 mRNA,29 ± 8 nM
same,EC50,[1]; read-out: EC50 for Δ7 SMN2 mRNA,12 ± 1 nM
same,effect on SMN1 splicing,[2],largely unaffected
same,"SMN protein in brain, of protein levels in heterozygous mice",[3]; SMNΔ7 mice,approximately 43%
same,"SMN protein in muscle, of protein levels in heterozygous mice",[3]; SMNΔ7 mice,~55%
same,maximum increase of SMN protein levels in brain and muscle tissue,"[3]; neonatal SMNΔ7 mice, 1-3 mg/kg IP daily, 7 days from P3",2-3 fold
same,maximal increase in SMN protein above untreated cells,[4]; motor neurons from SMA patient iPSCs,60-80%
same,EC50,"[4]; spinal motor neurons from SMA patient iPSCs, 72 hours",182 ± 114 nM
same,concentration at which effects on splicing were evident,[5],above 100 nM
same,effect on SMN2 splicing,[5],dose-dependently altered towards inclusion of exon 7
same,number of genes whose expression levels were changed (p<0.01),[6]; 121 nM dose,0
same,genes whose splicing events were affected,"[6]; 121 nM, compared to control","STRN3, SLC25A17 and GGCT"
same,number of genes whose splicing events were affected at the higher dose but not by the lower dose,"[6]; higher dose, 5-fold higher than the EC90, including FoxM1 and MADD",11
same,EC90,[6]; read-out: EC90 (therapeutically relevant concentration),121 nM
